Measured values from US5817652A, “Hypolipidaemic condensed 1,4-thiazepines” (Glaxo Wellcome Inc., priority 1993, dated 1998).
Counter-ions that a name gives are not always drawn.

Tested on: rat distal ileal brush border membrane vesicles
Assay: In vitro inhibition of bile acid uptake (sodium-dependent 3H taurocholate uptake)
Type: biochemical
Conditions: active (sodium-dependent) 3H taurocholate uptake, 30 seconds at 24° C., pH 7.4
Experimental: In vitro inhibition of bile acid uptake
Freshly prepared rat distal ileal brush border membrane vesicles (about […] vesicle protein) were incubated for 30 seconds at 24° C. in an incubation mixture comprising […] ^3 H taurocholate, 100 mM NaCl (or KCl) and 80 mM mannitol in 20 mM Herpes Tris pH 7.4. Each test compound was dissolved in ethanol (or water) and then diluted with incubation mixture to an ethanol concentration of not more than 1% v/v. The incubation was terminated by rapid dilution and filtration and the filter washed with an ice-cold isotonic sodium-free buffer.
The uptake of ^3 H taurocholate was measured by the radioactivity remaining on the filter and converted to pmoles/mg vesicle protein. The active, ie sodium-dependent, uptake was obtained by subtracting the passive uptake measured in 100 mM KCl from the total uptake measured in 100 mM NaCl. The active uptake for each test compound was compared with a control active uptake and the results expressed as % inhibition of bile acid uptake.

Row | Compound | % inhibition of bile acid uptake (0.3 μM compound) [%] | % inhibition of bile acid uptake (1 μM compound) [%] | % inhibition of bile acid uptake (3 μM compound) [%] | % inhibition of bile acid uptake (10 μM compound) [%]
1 | CCC(=O)CC1(CC)CS(=O)(=O)c2ccccc2C(c2ccccc2)N1 (mixture of isomers) [Example 4, (±)-trans-1-(3-ethyl-2,3,4,5-tetrahydro-5-phenyl-1,4-benzothiazepin-3-yl)-2-butanone S,S-dioxide] | 28 | 54 | 77 | 90
2 | CCC1(/C=C/C(C)=O)CS(=O)(=O)c2ccccc2C(c2ccccc2)N1 (mixture of isomers) [Example 10, (±)-trans-(E)-4-(3-ethyl-2,3,4,5-tetrahydro-5-phenyl-1,4-benzothiazepin-3-yl)-3-buten-2-one 1,1-dioxide] | – | – | – | 69
3 | CCOCCC1(CC)CS(=O)(=O)c2ccccc2C(c2ccccc2)N1 (racemic) [Example 7, (±)-trans-3-(ethoxyethyl)-3-ethyl-2,3,4,5-tetrahydro-5-phenyl-1,4-benzothiazepine 1,1-dioxide hydrochloride hemihydrate] | – | – | – | 53
4 | CCC(=O)CC1(CC)CS(=O)(=O)c2ccc(OC)cc2C(c2ccccc2)N1 (mixture of isomers) [Example 51, (±)-Trans-1-(3-Ethyl-2,3,4,5-tetrahydro-7-methoxy-5-phenyl-1,4-benzothiazepin-3-yl)-2-butanone S,S-dioxide hydrochloride] | 66 | 91 | 100 | 100
5 | CCC(=O)CC1(CC)CS(=O)(=O)c2cc(OC)ccc2C(c2ccccc2)N1 (mixture of isomers) [Example 5, (±)-trans-1-(3-ethyl-2,3,4,5-tetrahydro-8-methoxy-5-phenyl-1,4-benzothiazepin-3-yl)-2-butanone S,S-dioxide hydrochloride 1,1 hydrate] | 60 | 83 | 94 | 98
6 | COc1ccc2c(c1)S(=O)(=O)CC1(CCCCC1)NC2c1ccccc1 (racemic) [Example 11, (±)-2,3,4,5-tetrahydro-8-methoxy-5-phenylspiro(1,4-benzothiazepine-3,1-cyclohexane) 1,1-dioxide] | 15 | 33 | 36 | 64
7 | O=S1(=O)CC2(CCCCC2)NC(c2ccccc2)c2ccccc21 (racemic) [Example 20, (±)-2,3,4,5-Tetrahydro-5-phenylspiro(1,4-benzothiazepine-3,1'-cyclohexane) 1,1-dioxide] | – | – | – | 27
